Each structure is given as a SMILES string. Positions of bridges follow the written chain, without caps; N, C: chain ends. Residues, ends and D or L forms follow the SMILES beside them.

The values that follow come from patent publication US11155586B2, “Cystine knot scaffold platform” (Genentech, Inc., priority 2015, dated 2021).

In this assay the target is T1, hVEGF(8-109) (Homo sapiens, UniProt P15692).
T1 construct: hVEGF(8-109) or BSA were coated on 384-well MAXISORP™ immunoplates
T1 sequence (P15692 214-315): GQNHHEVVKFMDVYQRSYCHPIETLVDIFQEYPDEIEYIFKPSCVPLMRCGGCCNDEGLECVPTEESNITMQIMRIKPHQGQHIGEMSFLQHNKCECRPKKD
Briefly: Spot phage ELISA. The format is binding. The procedure:
After four rounds of binding selection, individual phage clones were picked and inoculated into 450 μl 2YT media containing 50 µg/ml Carbenecillin and M13-KO7 helper phage in 96-well blocks, which were grown at 37° C. overnight. The supernatant was analyzed with spot phage ELISA as follows: hVEGF(8-109) or BSA were coated on 384-well MAXISORP™ immunoplates and phage supernatant diluted (1:3) with PBT buffer was added to the wells. The plates were washed and bound phage was detected with anti-M13-HRP followed by TMB substrate. In these assays, phage binding to BSA alone was tested in parallel to assess background binding. Clones whose binding signals for hVEGF-A (8-109) were more than 3 times higher than to BSA (background) were considered positive. Positive clones were subjected to DNA sequence analysis.
In general terms: In an ELISA, binding on a coated surface is turned into a signal by an enzyme label.

Setting [1] is: spot phage ELISA signal, EETI-II-based binders against hVEGF-A, Table 19.
[2] abbreviates: VEGF_CKP9 Loop1/Loop5 affinity-matured variants, Table 24.
Setting [3] is: loop 2 variants based on 9.54 framework, Table 26.

Regarding `CC(C)C[C@@H]1NC(=O)[C@@H]2CSSC[C@@H](C(=O)NCC(=O)O)NC(=O)[C@H](Cc3ccccc3)NC(=O)CNC(=O)[C@H](CC(N)=O)NC(=O)[C@@H]3CCCN3C(=O)CNC(=O)[C@@H]3CSSC[C@H](NC(=O)[C@H](Cc4ccc(O)cc4)NC(=O)[C@H](CCC(N)=O)NC(=O)[C@H](CCCCN)NC(=O)[C@H](Cc4ccccc4)NC(=O)[C@H](CCCNC(=N)N)NC(=O)[C@H]([C@@H](C)O)NC(=O)[C@H]([C@@H](C)O)NC(=O)[C@@H]4CCCN4C(=O)[C@@H](NC(=O)CN)CSSC[C@H](NC(=O)CNC(=O)[C@H](C)NC1=O)C(=O)N[C@@H](C(C)C)C(=O)N3)C(=O)N[C@@H](CCCCN)C(=O)N[C@@H](CCC(N)=O)C(=O)N[C@@H](CC(=O)O)C(=O)N[C@@H](CO)C(=O)N[C@@H](CC(=O)O)C(=O)N2` [VEGF_CKP6] (H-GCPTTRFKQYCKQDSDCLAGCVCGPNGFCG-OH; disulfide 2-21, 11-23, 17-29; N-terminus and C-terminus assumed), where the note is “Table 19”, the “S/N (signal to noise ratio as compared to BSA control)” value was determined as 51.9. Under setting [1], the ELISA was found to be 3.5.
For the compound `CC(C)C[C@@H]1NC(=O)[C@@H]2CSSC[C@H](NC(=O)CNC(=O)[C@H](Cc3c[nH]c4ccccc34)NC(=O)[C@H](Cc3ccccc3)NC(=O)[C@@H]3CCCN3C(=O)[C@H](CCC(N)=O)NC(=O)[C@H](CC(C)C)NC(=O)[C@H](C(C)C)NC(=O)[C@H](CC(=O)O)NC(=O)[C@@H](NC(=O)CN)CSSC[C@@H](C(=O)N[C@H](C(=O)N[C@H]3CSSC[C@@H](C(=O)NCC(=O)O)NC(=O)[C@H](CO)NC(=O)[C@H](CCC(N)=O)NC(=O)[C@H](Cc4ccc(O)cc4)NC(=O)[C@H](Cc4c[nH]c5ccccc45)NC(=O)[C@H](Cc4c[nH]cn4)NC3=O)C(C)C)NC(=O)CNC(=O)[C@H](C)NC1=O)C(=O)N[C@@H](CCCCN)C(=O)N[C@@H](CCC(N)=O)C(=O)N[C@@H](CC(=O)O)C(=O)N[C@@H](CO)C(=O)N[C@@H](CC(=O)O)C(=O)N2` [VEGF_CKP9.2] (H-GCDVLQPFWGCKQDSDCLAGCVCHWYQSCG-OH; disulfide 2-21, 11-17, 23-29 (inferred); N-terminus and C-terminus assumed), the “S/N (signal to noise ratio as compared to BSA control)” value (Table 24) turned out to be 31.1. The compound also had an ELISA under setting [2] of 2.4.
For `CC[C@H](C)[C@@H]1NC(=O)[C@H](CCC(N)=O)NC(=O)[C@@H](NC(=O)CN)CSSC[C@@H](C(=O)N[C@H](C(=O)N[C@H]2CSSC[C@@H](C(=O)NCC(=O)O)NC(=O)[C@H](CO)NC(=O)[C@H](CC(N)=O)NC(=O)[C@H](Cc3ccc(O)cc3)NC(=O)[C@H](Cc3ccccc3)NC(=O)[C@H](Cc3c[nH]cn3)NC2=O)C(C)C)NC(=O)CNC(=O)[C@H](C)NC(=O)[C@H](CC(C)C)NC(=O)[C@@H]2CSSC[C@H](NC(=O)CNC(=O)[C@H](Cc3c[nH]c4ccccc34)NC(=O)[C@H](Cc3ccccc3)NC(=O)[C@@H]3CCCN3C(=O)[C@H](CCC(N)=O)NC(=O)[C@H](CO)NC1=O)C(=O)N[C@@H](CCCCN)C(=O)N[C@@H](CCC(N)=O)C(=O)N[C@@H](CC(=O)O)C(=O)N[C@@H](CO)C(=O)N[C@@H](CC(=O)O)C(=O)N2` [VEGF_CKP9.3] (H-GCQISQPFWGCKQDSDCLAGCVCHFYNSCG-OH; disulfide 2-21, 11-17, 23-29 (inferred); N-terminus and C-terminus assumed), where the note is “Table 24”, the “S/N (signal to noise ratio as compared to BSA control)” value is 24.5. Besides, under setting [2], the ELISA was 1.6.
For `CC(C)C[C@@H]1NC(=O)[C@@H]2CSSC[C@H](NC(=O)CNC(=O)[C@H](Cc3c[nH]c4ccccc34)NC(=O)[C@H](Cc3ccccc3)NC(=O)[C@@H]3CCCN3C(=O)[C@H](CCC(N)=O)NC(=O)[C@H]([C@@H](C)O)NC(=O)[C@H](CCCNC(=N)N)NC(=O)[C@H](CCC(N)=O)NC(=O)[C@@H](NC(=O)CN)CSSC[C@@H](C(=O)N[C@H](C(=O)N[C@H]3CSSC[C@@H](C(=O)NCC(=O)O)NC(=O)[C@H](CO)NC(=O)[C@H](CCC(N)=O)NC(=O)[C@H](Cc4ccc(O)cc4)NC(=O)[C@H](Cc4c[nH]c5ccccc45)NC(=O)[C@H](CCCNC(=N)N)NC3=O)C(C)C)NC(=O)CNC(=O)[C@H](C)NC1=O)C(=O)N[C@@H](CCCCN)C(=O)N[C@@H](CCC(N)=O)C(=O)N[C@@H](CC(=O)O)C(=O)N[C@@H](CO)C(=O)N[C@@H](CC(=O)O)C(=O)N2` [VEGF_CKP9.22] (H-GCQRTQPFWGCKQDSDCLAGCVCRWYQSCG-OH; disulfide 2-21, 11-17, 23-29 (inferred); N-terminus and C-terminus assumed), the “S/N (signal to noise ratio as compared to BSA control)” value (Table 24) was found to be 17.2. Also, the ELISA under setting [2] is given as 1.2.
As for `CC[C@H](C)[C@@H]1NC(=O)[C@H](CC(N)=O)NC(=O)[C@@H](NC(=O)CN)CSSC[C@@H](C(=O)N[C@H](C(=O)N[C@H]2CSSC[C@@H](C(=O)NCC(=O)O)NC(=O)[C@H](CO)NC(=O)[C@H](CCC(N)=O)NC(=O)[C@H](Cc3ccc(O)cc3)NC(=O)[C@H](Cc3ccc(O)cc3)NC(=O)[C@H](CCC(N)=O)NC2=O)C(C)C)NC(=O)CNC(=O)[C@H](C)NC(=O)[C@H](CC(C)C)NC(=O)[C@@H]2CSSC[C@H](NC(=O)CNC(=O)[C@H](Cc3c[nH]c4ccccc34)NC(=O)[C@H](Cc3ccccc3)NC(=O)[C@@H]3CCCN3C(=O)[C@H](CC(C)C)NC(=O)[C@H](CCSC)NC1=O)C(=O)NCC(=O)N[C@@H](CC(C)C)C(=O)N[C@@H](CC(=O)O)C(=O)N[C@@H](Cc1ccc(O)cc1)C(=O)N[C@@H](CC(=O)O)C(=O)N2` [VEGF_CKP9.54.2] (H-GCNIMLPFWGCGLDYDCLAGCVCQYYQSCG-OH; disulfide 2-21, 11-17, 23-29; N-terminus and C-terminus assumed), the “S/N (signal to noise ratio as compared to BSA control)” value (Table 26) is on record as 26. The compound further gave an ELISA under setting [3] of 0.1.
As to `CC[C@H](C)[C@@H]1NC(=O)[C@H](CC(N)=O)NC(=O)[C@@H](NC(=O)CN)CSSC[C@@H](C(=O)N[C@H](C(=O)N[C@H]2CSSC[C@@H](C(=O)NCC(=O)O)NC(=O)[C@H](CO)NC(=O)[C@H](CCC(N)=O)NC(=O)[C@H](Cc3ccc(O)cc3)NC(=O)[C@H](Cc3ccc(O)cc3)NC(=O)[C@H](CCC(N)=O)NC2=O)C(C)C)NC(=O)CNC(=O)[C@H](C)NC(=O)[C@H](CC(C)C)NC(=O)[C@@H]2CSSC[C@H](NC(=O)CNC(=O)[C@H](Cc3c[nH]c4ccccc34)NC(=O)[C@H](Cc3ccccc3)NC(=O)[C@@H]3CCCN3C(=O)[C@H](CC(C)C)NC(=O)[C@H](CCSC)NC1=O)C(=O)NCC(=O)N1CCC[C@H]1C(=O)N[C@@H](CC(=O)O)C(=O)N[C@@H](CC(C)C)C(=O)N[C@@H](CCC(N)=O)C(=O)N2` [VEGF_CKP9.54.59] (H-GCNIMLPFWGCGPDLQCLAGCVCQYYQSCG-OH; disulfide 2-21, 11-17, 23-29; N-terminus and C-terminus assumed), the “S/N (signal to noise ratio as compared to BSA control)” value (Table 26) was determined as 35.4. Under setting [3], the ELISA is reported as 2.3.
Take `CC(C)C[C@@H]1NC(=O)[C@@H]2CSSC[C@H](NC(=O)CNC(=O)[C@H](Cc3c[nH]c4ccccc34)NC(=O)[C@H](CC(C)C)NC(=O)[C@@H]3CCCN3C(=O)[C@H](CCC(=O)O)NC(=O)[C@H](Cc3ccccc3)NC(=O)[C@H](CC(C)C)NC(=O)[C@H](CCCCN)NC(=O)[C@@H](NC(=O)CN)CSSC[C@@H](C(=O)N[C@H](C(=O)N[C@H]3CSSC[C@@H](C(=O)NCC(=O)O)NC(=O)[C@H](CO)NC(=O)[C@H](CCC(=O)O)NC(=O)[C@H](Cc4ccc(O)cc4)NC(=O)[C@H](Cc4c[nH]c5ccccc45)NC(=O)[C@H](CCCNC(=N)N)NC3=O)C(C)C)NC(=O)CNC(=O)[C@H](C)NC1=O)C(=O)N[C@@H](CCCCN)C(=O)N[C@@H](CCC(N)=O)C(=O)N[C@@H](CC(=O)O)C(=O)N[C@@H](CO)C(=O)N[C@@H](CC(=O)O)C(=O)N2` [VEGF_CKP9.96] (H-GCKLFEPLWGCKQDSDCLAGCVCRWYESCG-OH; disulfide 2-21, 11-17, 23-29; N-terminus and C-terminus assumed): the “S/N (signal to noise ratio as compared to BSA control)” value (Table 24) was determined as 18.4. For the same compound, the ELISA under setting [2] is listed as 1.2.
Take `CC[C@H](C)[C@@H]1NC(=O)[C@H](CC(=O)O)NC(=O)[C@H](Cc2c[nH]cn2)NC(=O)[C@@H]2CCCN2C(=O)[C@H](CCC(=O)O)NC(=O)[C@H](Cc2c[nH]c3ccccc23)NC(=O)[C@@H]2CCCN2C(=O)[C@H]([C@@H](C)O)NC(=O)[C@H](CCCNC(=N)N)NC(=O)[C@@H](NC(=O)CN)CSSC[C@@H]2NC(=O)CNC(=O)[C@H](C)NC(=O)[C@H](CC(C)C)NC(=O)[C@@H]3CSSC[C@@H](C(=O)NCC(=O)O)NC(=O)[C@H](Cc4ccccc4)NC(=O)CNC(=O)[C@H](CC(N)=O)NC(=O)[C@@H]4CCCN4C(=O)CNC(=O)[C@H](CSSC[C@H](NC(=O)[C@H]([C@@H](C)O)NC1=O)C(=O)N[C@@H](CCCCN)C(=O)N[C@@H](CCC(N)=O)C(=O)N[C@@H](CC(=O)O)C(=O)N[C@@H](CO)C(=O)N[C@@H](CC(=O)O)C(=O)N3)NC(=O)[C@H](C(C)C)NC2=O` [VEGF_CKP11] (H-GCRTPWEPHDITCKQDSDCLAGCVCGPNGFCG-OH; disulfide 2-23, 13-25, 19-31; N-terminus and C-terminus assumed): for the setting “Table 19”, the “S/N (signal to noise ratio as compared to BSA control)” value is 57.5. Under setting [1], this compound displayed an ELISA of 4.1.
